Source: the NIST ThermoML archive (doi:10.1021/je060271a)
Values joined by “and” are separate entries in the source; they are usually repeats but may differ in a detail not shown here. Identical values can stand only once.

Conditions: 343.15 K, Liquid, Vibrating tube method

CCCCCC(=O)OCC(COC(=O)CCCCC)(COC(=O)CCCCC)COC(=O)CCCCC [pentaerythritol tetrahexanoate]
Conditions	mass density
203.8 kPa	957.2 kg/m3
203.9 kPa	957.2 kg/m3 and 957.1 kg/m3
204 kPa	957.1 kg/m3
204.1 kPa	957.1 kg/m3 and 957.2 kg/m3
204.3 kPa	957.2 kg/m3 and 957.3 kg/m3
204.5 kPa	957.2 kg/m3 and 957.3 kg/m3
204.6 kPa	957.2 kg/m3 and 957.3 kg/m3
204.8 kPa	957.3 kg/m3 [middle of 4 runs]
205 kPa	957.2 kg/m3 and 957.3 kg/m3
205.2 kPa	957.2 kg/m3
205.3 kPa	957.2 kg/m3 and 957.3 kg/m3
205.7 kPa	957.2 kg/m3
205.9 kPa	957.2 kg/m3
206 kPa	957.2 kg/m3
206.2 kPa	957.2 kg/m3
206.4 kPa	957.2 kg/m3
206.6 kPa	957.2 kg/m3 and 957.1 kg/m3
206.7 kPa	957.3 kg/m3 and 957.2 kg/m3
206.9 kPa	957.3 kg/m3 and 957.1 kg/m3
207.1 kPa	957.2 kg/m3
207.2 kPa	957.2 kg/m3
207.3 kPa	957.2 kg/m3
207.4 kPa	957.2 kg/m3
207.9 kPa	957.3 kg/m3
208.3 kPa	957.2 kg/m3
208.6 kPa	957.2 kg/m3 and 957.1 kg/m3
208.8 kPa	957.3 kg/m3 and 957.2 kg/m3
209 kPa	957.2 kg/m3
209.2 kPa	957.3 kg/m3 and 957.2 kg/m3
209.3 kPa	957.2 kg/m3 and 957.3 kg/m3 and 957.1 kg/m3
209.5 kPa	957.2 kg/m3
209.7 kPa	957.2 kg/m3
209.9 kPa	957.1 kg/m3 and 957.2 kg/m3
211.1 kPa	957.2 kg/m3
212.5 kPa	957.1 kg/m3
212.6 kPa	957.2 kg/m3 and 957.3 kg/m3
212.7 kPa	957.2 kg/m3
212.8 kPa	957.1 kg/m3 and 957.2 kg/m3
213 kPa	957.2 kg/m3
213.2 kPa	957.2 kg/m3
213.3 kPa	957.2 kg/m3
213.5 kPa	957.3 kg/m3 and 957.2 kg/m3
213.7 kPa	957.3 kg/m3 and 957.2 kg/m3 and 957.1 kg/m3
213.9 kPa	957.2 kg/m3 and 957.1 kg/m3 and 957.4 kg/m3
214.2 kPa	957.1 kg/m3
215.2 kPa	957.2 kg/m3
215.3 kPa	957.3 kg/m3
215.4 kPa	957.2 kg/m3 and 957.1 kg/m3 and 957.3 kg/m3
215.6 kPa	957.4 kg/m3 and 957.1 kg/m3 and 957.2 kg/m3
215.8 kPa	957.3 kg/m3
215.9 kPa	957.2 kg/m3
216 kPa	957.3 kg/m3
216.1 kPa	957.3 kg/m3 and 957.2 kg/m3
216.3 kPa	957.2 kg/m3 and 957.3 kg/m3
216.5 kPa	957.3 kg/m3 and 957.2 kg/m3
216.6 kPa	957.3 kg/m3
216.8 kPa	957.2 kg/m3 and 957.1 kg/m3
217.7 kPa	957.2 kg/m3 and 957.3 kg/m3
218 kPa	957.4 kg/m3
218.2 kPa	957.1 kg/m3 and 957.2 kg/m3
218.6 kPa	957.2 kg/m3
218.9 kPa	957.2 kg/m3
219.1 kPa	957.2 kg/m3
219.3 kPa	957.3 kg/m3
219.4 kPa	957.1 kg/m3 and 957.2 kg/m3 and 957.3 kg/m3
219.6 kPa	957.4 kg/m3
219.8 kPa	957.2 kg/m3
219.9 kPa	957.1 kg/m3
220 kPa	957.2 kg/m3
220.3 kPa	957.2 kg/m3
220.5 kPa	957.2 kg/m3
220.6 kPa	957.1 kg/m3
220.8 kPa	957.1 kg/m3
221 kPa	957.1 kg/m3
221.2 kPa	957.3 kg/m3
221.3 kPa	957.2 kg/m3
222.7 kPa	957.3 kg/m3
222.9 kPa	957.1 kg/m3
223.1 kPa	957.2 kg/m3
223.3 kPa	957.3 kg/m3 and 957.4 kg/m3
223.4 kPa	957.1 kg/m3 and 957.3 kg/m3 and 957.2 kg/m3
223.6 kPa	957.2 kg/m3
223.8 kPa	957.3 kg/m3
224.1 kPa	957.2 kg/m3
224.3 kPa	957.3 kg/m3 and 957.2 kg/m3
224.5 kPa	957.2 kg/m3 and 957.3 kg/m3 and 957.1 kg/m3
224.7 kPa	957.2 kg/m3
224.8 kPa	957.3 kg/m3 and 957.2 kg/m3
225.2 kPa	957.3 kg/m3
226.9 kPa	957.2 kg/m3 and 957.3 kg/m3
227.1 kPa	957.3 kg/m3
227.4 kPa	957.2 kg/m3
231.3 kPa	957.2 kg/m3 and 957.3 kg/m3
231.6 kPa	957.3 kg/m3 and 957.1 kg/m3
232 kPa	957.1 kg/m3 and 957.2 kg/m3
232.3 kPa	957.3 kg/m3 and 957.2 kg/m3
232.5 kPa	957.2 kg/m3
232.6 kPa	957.3 kg/m3
232.7 kPa	957.3 kg/m3
233 kPa	957.2 kg/m3
233.2 kPa	957.2 kg/m3
233.3 kPa	957.2 kg/m3
233.5 kPa	957.2 kg/m3
233.7 kPa	957.3 kg/m3
233.9 kPa	957.3 kg/m3
234 kPa	957.2 kg/m3 and 957.3 kg/m3
234.4 kPa	957.2 kg/m3
234.6 kPa	957.1 kg/m3 and 957.4 kg/m3 and 957.3 kg/m3
234.7 kPa	957.3 kg/m3
234.9 kPa	957.2 kg/m3
235.1 kPa	957.2 kg/m3
235.2 kPa	957.2 kg/m3
235.6 kPa	957.2 kg/m3
235.8 kPa	957.1 kg/m3
236 kPa	957.2 kg/m3
236.1 kPa	957.2 kg/m3 and 957.3 kg/m3
236.3 kPa	957.3 kg/m3
236.5 kPa	957.1 kg/m3
236.6 kPa	957.2 kg/m3
236.8 kPa	957.2 kg/m3
237 kPa	957.1 kg/m3 and 957.2 kg/m3 and 957.3 kg/m3
237.3 kPa	957.3 kg/m3
237.5 kPa	957.2 kg/m3
237.7 kPa	957.2 kg/m3 and 957.4 kg/m3
237.9 kPa	957.2 kg/m3
238 kPa	957.3 kg/m3
238.2 kPa	957.2 kg/m3
238.4 kPa	957.3 kg/m3
238.6 kPa	957.3 kg/m3
238.7 kPa	957.3 kg/m3
238.9 kPa	957.3 kg/m3
239.2 kPa	957.1 kg/m3
239.3 kPa	957.3 kg/m3
240.1 kPa	957.3 kg/m3
240.3 kPa	957.3 kg/m3
240.5 kPa	957.3 kg/m3 and 957.2 kg/m3
240.6 kPa	957.1 kg/m3
240.8 kPa	957.3 kg/m3
241.2 kPa	957.4 kg/m3
241.3 kPa	957.3 kg/m3 and 957.2 kg/m3
241.5 kPa	957.3 kg/m3 and 957.1 kg/m3
242 kPa	957.3 kg/m3
242.2 kPa	957.3 kg/m3
242.4 kPa	957.2 kg/m3
242.6 kPa	957.3 kg/m3
